The record followed here is patent US8173428B2, “LNA oligonucleotides and the treatment of cancer” (Santaris Pharma A/S, priority 2004, dated 2012).

Oligonucleotides are written 5' to 3', each unit as a sugar letter and its base; * is a phosphorothioate linkage, no mark a phosphodiester; rarer units and linkages stand in square brackets, end groups in braces. Plain capitals give the bases only. l = locked nucleic acid (LNA); [5mC] = 5-methylcytosine; d = 2'-deoxy (DNA)

The subject of one data set is 15PC3 cells. Nature of the data set: Cell cycle analysis by propidium iodide staining and FACS. The conditions noted are these: transfected 15PC3 cells exposed to different concentrations of Taxol. It counts as cell-based, human. The method, then: Cell culturing: Human prostate cancer 15PC3 cells (kindly provided by Dr. F Baas, Neurozintuigen Laboratory, AMC, The Netherlands) were seeded to a density of 8×10E5 cells in T75-flasks and grown for two days at 37° C. and 5% CO2 in DMEM supplemented with 10% FBS, Glutamax and Gentamicin. Two days following seeding cells were transfected with 2-10 nM SEQ ID NO. 2 using Lipofectamine at a final conc. of 7.5 μg/ml. Transfections were carried out as described by Dean et al. (1994, JBC 269 p. 16416 16424). In short cells were incubated with Lipofectamine diluted in OptiMEM for 7-10 min followed by the addition of the oligonucleotide to total volume of 8.7 ml per T75 flask. 4 hours following transfection cells were washed in OptiMEM and grown at 37° C. for 12-96 hours in complete growth medium with or without the addition of 2-100 nM Taxol (Sigma Aldrich). Cells were harvested for either mRNA extraction, Caspase 3/7 assay or fixed, stained with PI and analysed by FACS analysis.
Cell culturing and transfections: As in example 13.
Fixation and PI staining: Cells were washed in PBS, harvested and resuspended in 100 μl in ice cold PBS. 900 μl ice cold 70% […] and fixed cells were kept at −20 until use. […]
SEQ ID NO. 2 transfected 15PC3 cells were exposed to different concentrations of Taxol and analysed by Propidium Iodide staining and subsequent FACS analysis (FIG. 7a-c). […]

Another data set concerns Survivin protein. The experiment in a line: Western blot analysis of Survivin protein levels in transfected 15PC3 cells. In kind it is cell-based, human. The conditions noted are these: 1, 10 and 25 nM, 12, 24 and 48 hours, compared with mock. The method, then:
Cell culturing and transfections: 15PC3 cells were seeded in 12-well plates and grown for two days at 37° C. (5% CO2) in DMEM supplemented with 10% FBS, Glutamax I and Gentamicin. When the cells were 60-70% confluent, they were transfected in duplicates with different concentrations of oligonucleotides (0.2-25 nM) using Lipofectamine 2000 (10 μg/ml). Transfections were carried out essentially as described by Dean et al. (1994, JBC 269:16416-16424). In short, cells were incubated for 10 min. with Lipofectamine in OptiMEM followed by addition of oligonucleotide to a total volume of 0.5 ml transfection mix per well. After 4 hours, the transfection mix was removed, cells were washed and grown at 37° C. for approximately 20 hours (mRNA analysis) or 12-72 hours (protein analysis) in the appropriate growth medium. Cells were then harvested for protein and RNA analysis.
The in vitro effect of Survivin oligoes on Survivin protein levels in transfected cells was determined by Western Blotting.
Cells were harvested and lysed in 50 mM Tris-HCl pH 6.8, 10% glycerol, 2.5% SDS, 5 mM DTT and 6 M urea supplemented with protease inhibitor cocktail (Roche). Total protein concentrations were measured using a BCA protein assay kit (Pierce). 50 μg total protein was run on a 12% Bis-Tris gels in MOPS buffer and blotted onto a PVDF membranes according to manufacture's instructions (Invitrogen). […]
A general note: A western blot detects proteins with antibodies after separation by electrophoresis.

The next data set has as its system rats. Nature of the data set: i.v. acute toxicity study in rats. It counts as in vivo. The text has this: For SEQ ID NO. 2 the following was found among others in preclinical toxicity studies: […]

“5′-^MeCsTs^MeCsAsastscscsastsgsgs^MeCsAsGsc-3′ (l[5mC]*lT*l[5mC]*lA*dA*dT*dC*dC*dA*dT*dG*dG*l[5mC]*lA*lG*dC) [SEQ ID NO. 2]”: the “Cells trapped in the G2 or G4 phase, combination with Taxol” value in the data set with 15PC3 cells is “increasing amount of cells trapped in the G2 or even G4 phase”. For the same substance, the “Survivin protein expression by Western blotting” value with Survivin protein was “Survivin protein down-regulation”. In addition, in the data set on rats, the lowest lethal dose stood at 1000 mg/kg.
